Several values for one entry are separate records, joined by “and”; a condition that tells them apart may be missing. Identical values can stand only once. Like-named read-outs stand apart in the source and are kept apart here.
Tests used:
[1] = system: patients with advanced solid tumors; test: Phase I trial: MTD, DLTs and adverse events; assay type: in vivo, human
[2] = system: MDA-MB-231/empty vector cells; test: Topotecan accumulation by flow microfluorimetry in MDA-MB-231/empty vector cells; assay type: cell-based; details: MDA-MB-231 cells transfected with empty vector
[3] = cited from earlier work
Pgp [4] = details: cited from earlier work
Pgp [5] = biological target: Pgp (Cricetulus griseus, UniProt P21448); test: Topotecan accumulation by flow microfluorimetry in CH^RC5 cells; assay type: cell-based, Chinese hamster; details: 1,000 nmol/L lapatinib, n = 3
Pgp (Cricetulus griseus, UniProt P21448), sequence (P21448 whole entry): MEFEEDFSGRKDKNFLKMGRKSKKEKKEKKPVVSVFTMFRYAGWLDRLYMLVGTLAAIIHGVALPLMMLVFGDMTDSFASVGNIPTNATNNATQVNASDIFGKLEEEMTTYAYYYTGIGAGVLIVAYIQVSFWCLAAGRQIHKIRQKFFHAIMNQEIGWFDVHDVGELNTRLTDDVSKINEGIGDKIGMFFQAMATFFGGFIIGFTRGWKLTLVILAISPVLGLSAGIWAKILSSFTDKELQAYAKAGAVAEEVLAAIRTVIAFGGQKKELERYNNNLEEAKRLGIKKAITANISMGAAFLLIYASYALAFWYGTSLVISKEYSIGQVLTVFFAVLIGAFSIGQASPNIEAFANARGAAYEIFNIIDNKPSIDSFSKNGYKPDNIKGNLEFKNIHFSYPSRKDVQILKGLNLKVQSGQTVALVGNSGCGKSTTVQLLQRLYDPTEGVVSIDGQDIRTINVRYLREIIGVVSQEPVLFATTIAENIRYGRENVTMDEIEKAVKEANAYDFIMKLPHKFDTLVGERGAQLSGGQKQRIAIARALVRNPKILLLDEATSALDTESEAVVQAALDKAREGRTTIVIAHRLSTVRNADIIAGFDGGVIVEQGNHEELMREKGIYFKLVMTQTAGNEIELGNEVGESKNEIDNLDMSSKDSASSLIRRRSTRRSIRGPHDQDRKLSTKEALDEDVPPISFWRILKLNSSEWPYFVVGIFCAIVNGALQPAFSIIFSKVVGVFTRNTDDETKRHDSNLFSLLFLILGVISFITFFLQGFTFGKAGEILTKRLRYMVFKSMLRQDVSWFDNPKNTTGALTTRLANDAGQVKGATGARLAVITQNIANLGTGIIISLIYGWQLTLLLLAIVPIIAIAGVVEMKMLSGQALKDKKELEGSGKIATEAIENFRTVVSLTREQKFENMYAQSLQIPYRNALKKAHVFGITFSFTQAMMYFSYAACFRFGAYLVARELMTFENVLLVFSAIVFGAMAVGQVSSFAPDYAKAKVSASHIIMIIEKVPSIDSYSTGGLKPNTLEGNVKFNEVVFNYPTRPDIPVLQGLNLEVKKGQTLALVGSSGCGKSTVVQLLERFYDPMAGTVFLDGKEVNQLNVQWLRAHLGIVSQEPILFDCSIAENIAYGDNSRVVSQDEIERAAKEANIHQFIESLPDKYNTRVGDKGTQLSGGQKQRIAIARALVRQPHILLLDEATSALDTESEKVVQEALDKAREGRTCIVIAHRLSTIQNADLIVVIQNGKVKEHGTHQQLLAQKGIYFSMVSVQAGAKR

[6] = Phase I trial: plasma pharmacokinetics of topotecan and lapatinib; details: for AUC(0-t) / Cmax / Topotecan CLp: n = 9, geometric mean and 95% CI; for Cmax: Topotecan Cmax; for half-life / Topotecan CLNRF / Topotecan Vss: geometric mean and 95% CI; for Topotecan CLNRF: CLp minus CLCR
[7] = assay type: in vivo, human; details: fit of CLNRF ratio versus lapatinib steady-state Cmin, ±35%
BCRP [8] = biological target: T1, BCRP (Homo sapiens, UniProt Q9UNQ0); details: read-out: in vitro Ki for inhibition of BCRP; cited from earlier work
T1 sequence (Q9UNQ0 1-655): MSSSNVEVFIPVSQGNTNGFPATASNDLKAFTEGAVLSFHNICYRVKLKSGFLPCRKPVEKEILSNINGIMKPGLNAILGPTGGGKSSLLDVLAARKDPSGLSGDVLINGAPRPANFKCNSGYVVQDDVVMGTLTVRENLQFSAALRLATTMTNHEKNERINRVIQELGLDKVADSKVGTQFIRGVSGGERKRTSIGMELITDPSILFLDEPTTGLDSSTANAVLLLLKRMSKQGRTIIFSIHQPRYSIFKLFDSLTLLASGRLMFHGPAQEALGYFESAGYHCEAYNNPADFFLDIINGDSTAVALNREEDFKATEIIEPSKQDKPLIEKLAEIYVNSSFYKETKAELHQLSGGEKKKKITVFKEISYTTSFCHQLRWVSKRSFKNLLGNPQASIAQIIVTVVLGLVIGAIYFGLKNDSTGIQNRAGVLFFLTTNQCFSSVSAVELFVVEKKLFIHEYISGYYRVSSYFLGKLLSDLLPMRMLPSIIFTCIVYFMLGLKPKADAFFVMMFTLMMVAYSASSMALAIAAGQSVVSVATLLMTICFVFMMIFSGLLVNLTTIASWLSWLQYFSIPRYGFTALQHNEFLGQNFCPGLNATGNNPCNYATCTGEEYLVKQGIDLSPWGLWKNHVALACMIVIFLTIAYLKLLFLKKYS

[9] = single agent, cited from earlier work
[10] = system: BT474 human breast carcinoma xenografts; test: BT474 xenograft tumor growth inhibition; assay type: in vivo, CB-17 SCID mice
AuxB1 cells = test: Topotecan accumulation by flow microfluorimetry in AuxB1 cells; assay type: cell-based, Chinese hamster; details: AuxB1 cells (lower Pgp), compared with CH^RC5
BCRP [11] = biological target: T1, BCRP; test: Topotecan accumulation by flow microfluorimetry in MDA-MB-231/BCRP cells; assay type: cell-based
[12] = system: MDA-MB-231/empty vector cells; test: Clonogenic assay with topotecan plus lapatinib in MDA-MB-231/empty vector cells; assay type: cell-based; details: MDA-MB-231 cells transfected with empty vector, 1 µmol/L lapatinib, 24 h
[13] = geometric least squares mean ratio and 90% CI

For `CS(=O)(=O)CCNCc1ccc(-c2ccc3ncnc(Nc4ccc(OCc5cccc(F)c5)c(Cl)c4)c3c2)o1` [lapatinib], the “MTD and recommended phase II dose of lapatinib in the combination” value ([1]; for 28 days of a 28-day cycle) is given as 1,250 mg/d, the “effect on intracellular topotecan” value [2] is given as “little effect” and the “Lapatinib AUC in mice” value ([3]; 30 mg/kg orally twice daily) is given as 5000 ng·h/mL. For the same compound, the “Lapatinib Cmax in mice” value ([3]; 30 mg/kg orally twice daily) was 1000 ng/mL, the “Lapatinib AUC in mice” value ([3]; 60 mg/kg orally twice daily) was 29000 ng·h/mL and the “Lapatinib Cmax in mice” value ([3]; 60 mg/kg orally twice daily) was 4000 ng/mL. For the same compound, the “Lapatinib AUC in mice” value ([3]; 100 mg/kg orally twice daily) was 94000 ng·h/mL, the “Lapatinib Cmax in mice” value ([3]; 100 mg/kg orally twice daily) was 9000 ng/mL and the “in vitro Ki for inhibition of Pgp” value (Pgp [4]) was 2,300 ng/mL. The Ki (Pgp [4]; read-out: in vitro Ki for inhibition of Pgp) was 3900 nM, the “intracellular topotecan, % of steady-state accumulation in the absence of lapatinib” value (Pgp [5]) was 220 ± 20% and the AUC(0-t) ([6]; human, plasma, oral, Lapatinib AUC0–24 h, lapatinib + topotecan (day 8)) was 31700 ng·h/mL. The AUC(0-t) ([6]; human, plasma, oral, Lapatinib AUC0–24 h, lapatinib alone (day 7)) was 23300 ng·h/mL, the Tmax ([6]; human, plasma, oral, Lapatinib Tmax, lapatinib alone (day 7), median and range) was 3 h and the “Ki (lapatinib concentration producing 50% inhibition of topotecan CLNRF)” value [7] was 2,349 ng/mL. The Ki (BCRP [8]) was 24.1 nM and 25 nM, the “dose up to which lapatinib was well tolerated in phase I trials” value ([9]; diarrhea and rash dose limiting) was “up to 1,800 mg/d” and the “inhibition of BT474 tumor growth” value ([10]; lapatinib 30 mg/kg oral twice daily 21 d, study 2, day 70) was 26%. The “inhibition of BT474 tumor growth” value ([10]; lapatinib 60 mg/kg oral twice daily 21 d, study 1, day 56) was 79%, the “inhibition of BT474 tumor growth” value ([10]; lapatinib 100 mg/kg oral twice daily 21 d, study 1, day 56) was 77% and the “inhibition of BT474 tumor growth” value ([10]; lapatinib 100 mg/kg oral twice daily 21 d, study 2, day 70) was 82%. For the same compound, the “effect on intracellular topotecan” value (AuxB1 cells) was “more modest”, the EC50 (BCRP [11]) was 250 nM and the “effect on topotecan-induced inhibition of colony formation” value [12] was “little effect”.

With `CC[C@@]1(O)C(=O)OCc2c1cc1n(c2=O)Cc2cc3c(CN(C)C)c(O)ccc3nc2-1` [topotecan] the “MTD and recommended phase II dose of topotecan in the combination” value ([1]; i.v. on days 1, 8, 15 of a 28-day cycle) was 3.2 mg/m^2, the “increase of topotecan AUC0–24 h in the presence of lapatinib” value ([6]; (7–29%)) was 18% and the “decrease of topotecan CLNRF when administered with lapatinib” value ([6]; (12–32%)) was 22%. For the same compound, the “decrease in topotecan CLp when administered with lapatinib” value ([6]; day 8 versus day 1) was 16%, the “Topotecan AUC0–24 h, day 8:day 1 ratio” value [6, 13] was 1.18 (1.07–1.29) and the “Topotecan CLNRF, day 8:day 1 ratio” value [6, 13] was 0.78 (0.68–0.88). For the same compound, the “Topotecan CLp, day 8:day 1 ratio” value [6, 13] was 0.84 (0.76–0.92), the “Topotecan Cmax, day 8:day 1 ratio” value [6, 13] was 0.79 (0.66–0.92) and the “Topotecan Vss, day 8:day 1 ratio” value [6, 13] was 0.99 (0.90–1.08). The “Topotecan t1/2, day 8:day 1 ratio” value [6, 13] was 1.01 (0.96–1.06), the AUC(0-t) ([6]; human, plasma, intravenous, Topotecan AUC0–24 h, lapatinib + topotecan (day 8)) was 510 ng·h/mL and the AUC(0-t) ([6]; human, plasma, intravenous, Topotecan AUC0–24 h, topotecan alone (day 1)) was 432 ng·h/mL. It also gave a Cmax ([6]; human, plasma, intravenous, lapatinib + topotecan (day 8)) of 128 ng/mL, a Cmax ([6]; human, plasma, intravenous, topotecan alone (day 1)) of 162 ng/mL and a half-life ([6]; human, plasma, intravenous, Topotecan t1/2, lapatinib + topotecan (day 8)) of 4.35 h. The half-life ([6]; human, plasma, intravenous, Topotecan t1/2, topotecan alone (day 1)) was 4.3 h, the “Topotecan CLNRF” value ([6]; lapatinib + topotecan (day 8)) was 4.11 (2.72–5.50) L/h/m^2 and the “Topotecan Vss” value ([6]; lapatinib + topotecan (day 8)) was 30.1(23.9–36.3) L/m^2. For the same compound, the “Topotecan CLp” value ([6]; lapatinib + topotecan (day 8)) was 6.14 L/h/m^2, the “Topotecan CLp” value ([6]; lapatinib + topotecan (day 8), listed as Topotecan) was 6.14 (4.27–8.01) L/h/m^2 and the “topotecan CLNRF as % of CLp” value ([6]; topotecan administered alone) was 72%. The “Topotecan CLNRF” value ([6]; topotecan alone (day 1)) was 5.25 (3.99–6.51) L/h/m^2, the “Topotecan Vss” value ([6]; topotecan alone (day 1)) was 30.5 (26.5–34.5) L/m^2 and the “Topotecan CLp” value ([6]; topotecan alone (day 1)) was 7.28 L/h/m^2. The “Topotecan CLp” value ([6]; topotecan alone (day 1), listed as Topotecan) was 7.28 (5.35–8.91) L/h/m^2, the “topotecan CLNRF as % of CLp” value ([6]; topotecan and lapatinib administered together) was 66% and the “MTD for topotecan alone” value ([9]; × 3) was 4 mg/m^2/wk. For the same compound, the “topotecan doses at which neutropenia is the principal toxicity” value [9] was “above 4 mg/m^2/wk”, the “inhibition of BT474 tumor growth” value ([10]; topotecan alone 6 mg/kg i.p. every 4 d × 3, study 2) was 53% and the “inhibition of BT474 tumor growth” value ([10]; topotecan alone 10 mg/kg i.p. every 4 d × 3, study 1) was 66%. For the same compound, the “inhibition of BT474 tumor growth” value ([10]; topotecan alone 10 mg/kg i.p. every 4 d × 3, study 2) was 65%.

Source: publication PMC2725396 (Clinical cancer research : an official journal of the …, 2008)
